Laboratory results: patent US12551458B2, “Topical pharmaceutical composition containing phospholipids” (EGIS GYÓGYSZERGYÁR ZRT., priority 2021, dated 2026)

Assays:
[1] = system: neuropathic pain in a human patient; conditions: topical aqueous solution; cited from earlier work
[2] = system: CCI operated paw of rats (neuropathic pain); test: Rat chronic constriction injury (CCI) model, paw withdrawal threshold with electronic von Frey device; type: in vivo, Wistar rats; conditions: oral 16.66 mg/kg
Source text: Furthermore, based on the article Bennett G J, at al (Pain., A peripheral mononeuropathy in rat that produces disorders of pain sensation like those seen in man. 1988 April; 33(1):87-107) we have developed a method for the examination of the compositions of the present invention. Thus, we have examined the compositions according to the present invention also with a different model for measuring the alleviation of the peripheral neuropathic pain also. Namely, we have carried out examinations on rats using Chronic constriction injury (CCI) model. Three weeks following nerve injury rats were assessed for hind paw mechanical withdrawal thresholds. The paw withdrawal threshold (PWT) was determined with an Electronic von Frey device according to the modified up-down method of Dixon (Efficient analysis of experimental observations., Annu Rev Pharmacol Toxicol. 1980; 20:441-62). […] The method and results are shown in example 3 and on FIG. 9.
Briefly, under isoflurane anesthesia small blunt dissection was made into the skin of rat right thigh then three loosely constrictive ligatures were placed around common sciatic nerve (chronic constriction injury CCI). Three weeks following nerve injury rats were assessed for hind paw mechanical withdrawal thresholds. […]

[3] = system: allodynia in nerve-ligated mice; conditions: cited from earlier work
[4] = Pharmacokinetic studies in rats (blood levels of pregabalin)
[5] = Solubility of pregabalin in solvents; conditions: any solvents
pain = conditions: compositions containing 1 and 3% of pregabalin; cited from earlier work

## CC(C)C[C@H](CN)CC(=O)O [pregabalin]
[1]
  Time for which neuropathic pain was reduced: 6 h
[2]
  Reduction of hypersensitivity after oral administration: not able to reduce hypersensitivity
[3]; topical 2.5% aqueous solution without other ingredients
  Time of maximum allodynia alleviating effect: 1 h
[3]; topical 2.5% aqueous solution
  Alleviating effect after 3 hours and 6 hours: essentially disappeared
[4]; oral 16.66 mg/kg
  Blood levels after oral administration: relatively high blood levels
[4]; topical treatment
  Amount entering the bloodstream during topical treatment: very small amounts
[5]
  Solubility: poor
pain
  Time after which the pain alleviation effect decreased: 1.5 to 2 h
